The compounds below were run against T1, recombinant full-length human prolyl endopeptidase (PREP) (Homo sapiens, UniProt P48147) (assay: Biochemical human prolyl endopeptidase (PREP) assay with fluorescently labelled substrate). Conditions: substrate Z-Gly-Pro-AMC 50 μM, 32° C., 60 min; some as mean values from multiple independent determinations.
T1 construct: To recombinant full-length human prolyl endopeptidase (PREP, R&D-Systems, 4308-SE); purchased R&D-Systems 4308-SE
T1 sequence (P48147 1-710): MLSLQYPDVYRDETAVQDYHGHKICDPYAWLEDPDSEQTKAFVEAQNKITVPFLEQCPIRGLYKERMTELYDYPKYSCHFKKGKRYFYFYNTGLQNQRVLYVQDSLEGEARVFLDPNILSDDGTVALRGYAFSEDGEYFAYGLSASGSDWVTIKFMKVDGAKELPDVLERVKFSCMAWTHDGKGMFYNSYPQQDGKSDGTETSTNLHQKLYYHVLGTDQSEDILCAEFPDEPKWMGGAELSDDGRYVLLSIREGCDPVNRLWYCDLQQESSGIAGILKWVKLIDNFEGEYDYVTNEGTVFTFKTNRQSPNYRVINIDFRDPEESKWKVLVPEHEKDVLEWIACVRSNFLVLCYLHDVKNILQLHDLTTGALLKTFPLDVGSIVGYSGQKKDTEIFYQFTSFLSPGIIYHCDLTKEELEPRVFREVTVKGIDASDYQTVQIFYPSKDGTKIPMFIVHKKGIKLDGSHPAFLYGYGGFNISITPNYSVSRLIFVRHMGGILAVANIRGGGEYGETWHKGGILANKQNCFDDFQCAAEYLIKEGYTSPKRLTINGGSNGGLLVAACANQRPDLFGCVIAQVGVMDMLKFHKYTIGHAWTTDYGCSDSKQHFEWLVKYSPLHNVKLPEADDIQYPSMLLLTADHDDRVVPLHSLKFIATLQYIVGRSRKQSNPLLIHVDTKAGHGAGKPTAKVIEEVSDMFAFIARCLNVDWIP
Procedure, shortened: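 0.4 nM (final, example) recombinant PREP in pH 7.5 Tris buffer with EDTA, GSH, BSA and Brij-35; compounds at 1 nM to 30 μM. Reaction started with 50 μM Z-Gly-Pro-AMC and followed by fluorescence (ex 360/em 465 nm) at 32° C for 60 min. IC50 interpolated from percent activity based on initial slopes.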

Row | SMILES | IC50 [nM]
1 | O=C(C1C(C(F)(F)F)CCc2nn(Cc3ncc(Cl)cc3Cl)c(=O)n21)N1CC[C@H](F)C1 (mixture of isomers) [Example 282, (5RS,6RS)-2-[(3,5-Dichloropyridin-2-yl)methyl]-5-{[(3S)-3-fluoropyrrolidin-1-yl]carbonyl}-6-(trifluoromethyl)-5,6,7,8-tetrahydro[1,2,4]triazolo[4,3-a]pyridin-3(2H)-one] | 15
2 | O=C([C@@H]1CCCc2nn(Cc3nccc(C(F)(F)F)c3Cl)c(=O)n21)N1CCC(F)(F)C1 [Example 387, (5S)-2-{[3-Chloro-4-(trifluoromethyl)pyridin-2-yl]methyl}-5-[(3,3-difluoropyrrolidin-1-yl)carbonyl]-5,6,7,8-tetrahydro[1,2,4]triazolo[4,3-a]pyridin-3(2H)-one] | 3.4
3 | O=C(C1CCCc2nn(Cc3ccc(F)c(F)c3)c(=O)n21)N1CCC(F)(F)C1 (racemic) [Example 83, (5RS)-2-(3,4-Difluorobenzyl)-5-[(3,3-difluoropyrrolidin-1-yl)carbonyl]-5,6,7,8-tetrahydro[1,2,4]triazolo[4,3-a]pyridin-3(2H)-one] | 2.1
4 | O=C(C1C(C(F)(F)F)CCc2nn(Cc3ncc(Cl)cc3F)c(=O)n21)N1CC[C@H](F)C1 (mixture of isomers) [Example 294, (5RS,6RS)-2-[(5-Chloro-3-fluoropyridin-2-yl)methyl]-5-{[(3S)-3-fluoropyrrolidin-1-yl]carbonyl}-6-(trifluoromethyl)-5,6,7,8-tetrahydro[1,2,4]triazolo[4,3-a]pyridin-3(2H)-one] | 20
5 | O=C(C1CCCc2nn(Cc3ccc4c(c3)CCCC4)c(=O)n21)N1CCCC1 (racemic) [Example 88, (5RS)-5-(Pyrrolidin-1-ylcarbonyl)-2-(5,6,7,8-tetrahydronaphthalen-2-ylmethyl)-5,6,7,8-tetrahydro[1,2,4]triazolo[4,3-a]pyridin-3(2H)-one] | 0.27
6 | O=C([C@@H]1CCCc2nn(Cc3ccc(F)c(Cl)c3)c(=O)n21)N1CC[C@H](O)C1 [Example 97, (5S)-2-(3-Chloro-4-fluorobenzyl)-5-{[(3S)-3-hydroxypyrrolidin-1-yl]carbonyl}-5,6,7,8-tetrahydro[1,2,4]triazolo[4,3-a]pyridin-3(2H)-one] | 6.5
7 | Cn1c(Cn2nc3n(c2=O)C(C(=O)N2CCCC2)CCC3)nc2ccccc21 (racemic) [Example 62, (5RS)-2-[(1-Methyl-1H-benzimidazol-2-yl)methyl]-5-(pyrrolidin-1-ylcarbonyl)-5,6,7,8-tetrahydro[1,2,4]triazolo[4,3-a]pyridin-3(2H)-one] | 2
8 | O=C(C1CC(C(F)(F)F)Cc2nn(Cc3ccc(Cl)nc3)c(=O)n21)N1C[C@@H](F)[C@@H](F)C1 (single isomer, unassigned) [Example 250] | 0.92
9 | O=C([C@@H]1C[C@@H](C(F)(F)F)Cc2nn(Cc3ccc(C(F)(F)F)nc3)c(=O)n21)N1CC[C@H](F)C1 (single isomer, unassigned) [Example 237] | 0.94
10 | O=C(C1CCCc2nn(Cc3ccc(Cl)c(C(F)(F)F)c3)c(=O)n21)N1CCCC1 (racemic) [Example 37] | 0.83
11 | O=C([C@@H]1CCCc2nn(Cc3ccc(Cl)cn3)c(=O)n21)N1CC[C@H](F)C1 [Example 508, (5S)-2-[(5-Chloropyridin-2-yl)methyl]-5-{[(3S)-3-fluoropyrrolidin-1-yl]carbonyl}-5,6,7,8-tetrahydro[1,2,4]triazolo[4,3-a]pyridin-3(2H)-one] | 0.91
12 | O=C(C1CCCc2nn(Cc3ccc(OC(F)F)cc3)c(=O)n21)N1CCCC1 (racemic) [Example 7, (5RS)-2-[4-(Difluoromethoxy)benzyl]-5-(pyrrolidin-1-ylcarbonyl)-5,6,7,8-tetrahydro[1,2,4]triazolo[4,3-a]pyridin-3(2H)-one] | 8
13 | O=C([C@@H]1CCCc2nn(Cc3ncc(F)cc3F)c(=O)n21)N1CC[C@H](F)C1 [Example 581, (5S)-2-[(3,5-Difluoropyridin-2-yl)methyl]-5-{[(3S)-3-fluoropyrrolidin-1-yl]carbonyl}-5,6,7,8-tetrahydro[1,2,4]triazolo[4,3-a]pyridin-3(2H)-one] | 0.3
14 | O=C([C@@H]1CCCc2nn(Cc3nccc(C(F)(F)F)c3Cl)c(=O)n21)N1CC[C@H](F)C1 [Example 392, (5S)-2-{[3-Chloro-4-(trifluoromethyl)pyridin-2-yl]methyl}-5-{[(3S)-3-fluoropyrrolidin-1-yl]carbonyl}-5,6,7,8-tetrahydro[1,2,4]triazolo[4,3-a]pyridin-3(2H)-one] | 0.46
15 | COc1ccc(Cn2nc3n(c2=O)C(C(=O)N2CCC(F)(F)C2)CCC3)cc1Cl (racemic) [Example 49, (5RS)-2-(3-Chloro-4-methoxybenzyl)-5-[(3,3-difluoropyrrolidin-1-yl)carbonyl]-5,6,7,8-tetrahydro[1,2,4]triazolo[4,3-a]pyridin-3(2H)-one] | 1.75
16 | O=C(C1CC(C(F)(F)F)Cc2nn(Cc3ccc(Cl)nc3)c(=O)n21)N1C[C@@H](F)[C@@H](F)C1 (single isomer, unassigned) [Example 249] | 0.83
17 | O=C([C@@H]1CCCc2nn(Cc3ccc(Br)cn3)c(=O)n21)N1C[C@@H](F)[C@@H](F)C1 [Example 504, (5S)-2-[(5-Bromopyridin-2-yl)methyl]-5-{[(3R,4S)-3,4-difluoropyrrolidin-1-yl]carbonyl}-5,6,7,8-tetrahydro[1,2,4]triazolo[4,3-a]pyridin-3(2H)-one] | 1.8
18 | Cc1ccc(Cn2nc3n(c2=O)C(C(=O)N2CC(O)C2)CCC3)cc1 (single isomer, unassigned) [Example 121, (5RS)-5-[(3-Hydroxyazetidin-1-yl)carbonyl]-2-(4-methylbenzyl)-5,6,7,8-tetrahydro[1,2,4]triazolo[4,3-a]pyridin-3(2H)-one] | 4.3
19 | COc1ccc(C2(Cn3nc4n(c3=O)[C@H](C(=O)N3CC[C@H](F)C3)CCC4)CC2)cc1 [Example 528, (5S)-5-{[(3S)-3-Fluoropyrrolidin-1-yl]carbonyl}-2-{[1-(4-methoxyphenyl)cyclopropyl]methyl}-5,6,7,8-tetrahydro[1,2,4]triazolo[4,3-a]pyridin-3(2H)-one] | 0.72
20 | O=C([C@@H]1CCCc2nn(Cc3cccc(C(F)(F)F)c3)c(=O)n21)N1C[C@@H](F)[C@@H](F)C1 [Example 445, (5S)-5-{[(3R,4S)-3,4-Difluoropyrrolidin-1-yl]carbonyl}-2-[3-(trifluoromethyl)benzyl]-5,6,7,8-tetrahydro[1,2,4]triazolo[4,3-a]pyridin-3(2H)-one] | 0.76
21 | O=C(C1CC(C(F)(F)F)Cc2nn(Cc3ccc(C(F)(F)F)nc3)c(=O)n21)N1CCC(F)(F)C1 (single isomer, unassigned) [Example 313, (5RS,7RS)-5-[(3,3-Difluoropyrrolidin-1-yl)carbonyl]-7-(trifluoromethyl)-2-{[6-(trifluoromethyl)pyridin-3-yl]methyl}-5,6,7,8-tetrahydro[1,2,4]triazolo[4,3-a]pyridin-3(2H)-one] | 4
22 | N#C[C@@H]1CCCN1C(=O)[C@@H]1CCCc2nn(Cc3ccc(Cl)cn3)c(=O)n21 [Example 512, (2S)-1-({(5S)-2-[(5-Chloropyridin-2-yl)methyl]-3-oxo-2,3,5,6,7,8-hexahydro[1,2,4]triazolo[4,3-a]pyridin-5-yl}carbonyl)pyrrolidine-2-carbonitrile] | 0.15
23 | O=C([C@@H]1CCCc2nn(Cc3nccc(C(F)(F)F)c3Cl)c(=O)n21)N1CC[C@H](O)C1 [Example 391, (5S)-2-{[3-Chloro-4-(trifluoromethyl)pyridin-2-yl]methyl}-5-{[(3S)-3-hydroxypyrrolidin-1-yl]carbonyl}-5,6,7,8-tetrahydro[1,2,4]triazolo[4,3-a]pyridin-3(2H)-one] | 8.65
24 | Cc1ccc(C2(Cn3nc4n(c3=O)[C@H](C(=O)N3CC(O)C3)CCC4)CC2)cc1 [Example 354, (5S)-5-[(3-Hydroxyazetidin-1-yl)carbonyl]-2-{[1-(4-methylphenyl)cyclopropyl]methyl}-5,6,7,8-tetrahydro[1,2,4]triazolo[4,3-a]pyridin-3(2H)-one] | 19
25 | O=C(C1C(C(F)(F)F)CCc2nn(Cc3ncc(Cl)cc3F)c(=O)n21)N1CC(F)C1 (single isomer, unassigned) [Example 309, (5RS,6RS)-2-[(5-Chloro-3-fluoropyridin-2-yl)methyl]-5-[(3-fluoroazetidin-1-yl)carbonyl]-6-(trifluoromethyl)-5,6,7,8-tetrahydro[1,2,4]triazolo[4,3-a]pyridin-3(2H)-one] | 64
26 | O=C(C1CC(C(F)(F)F)Cc2nn(Cc3ccc(Cl)cn3)c(=O)n21)N1CCC(F)(F)C1 (racemic) [Example 566, (5RS,7RS)-2-[(5-Chloropyridin-2-yl)methyl]-5-[(3,3-difluoropyrrolidin-1-yl)carbonyl]-7-(trifluoromethyl)-5,6,7,8-tetrahydro[1,2,4]triazolo[4,3-a]pyridin-3(2H)-one] | 4.1

From patent publication US10722501B2 (BAYER AKTIENGESELLSCHAFT, priority 2016, dated 2020)
